# How the values were obtained:
# [1] = Evaluation of gallstone dissolution, cholesterol stone; design: species or system human; conditions: 37° C., 4 hours; for Dissolution ability (%) Cholesterol stone: 0.5 g gallstone + 0.5 ml agent (1 g compound in 1 ml DMSO), (weight after dissolution)/(weight before dissolution)×100
# Description: (§1) In order to evaluate the cholesterol stone and pigmented stone dissolution abilities of each of Examples 1 to 3 and Comparative Examples 1 and 2 prepared according to the Preparation Example above, cholesterol stones and pigmented stones removed during surgery of gallstone patients were obtained, thereby preparing gallstones. 0.5 g of each of the prepared gallstones was placed in an Eppendorf tube, and then 0.5 ml of each of the gallstone-dissolving agents of Examples 1 to 3 and Comparative Examples 1 and 2 was added to the Eppendorf tube containing the gallstone. Each tube was left to stand at 37° C. for 4 hours. Thereafter, the gallstone dissolution ability of each compound was evaluated by measuring the mass of the gallstones before and after dissolving the gallstone by treatment with each compound. The results of evaluating the abilities to dissolve cholesterol stones and pigmented stones are shown in Tables 2 and 3 below, respectively, and photographs before and after dissolving the gallstones are comparatively shown in FIGS. 1 and 2, respectively.
# (§2) The gallstone dissolution ability was calculated using the following equation: Gallstone dissolution ability (%)=(weight of gallstone after dissolution)/(weight of gallstone before dissolution)×100
# [2] = Evaluation of gallstone dissolution, pigmented stone; design: species or system human; conditions: 0.5 g gallstone + 0.5 ml agent (1 g compound in 1 ml DMSO), 37° C., 4 hours; (weight after dissolution)/(weight before dissolution)×100
# Description: as §1, §2
SMILES,Dissolution ability (%) Cholesterol stone [1] [%],Dissolution ability (%) Pigmented stone [2] [%],ability to dissolve the cholesterol stone (in words) ([1]; Table 2 and FIG. 1)
"COC(C)(C)C [Comparative Example 1, Methyl tert-butyl ether, reference compound]",24.07,,
"CCOC(=O)CC [Comparative Example 2, ethyl propionate, reference compound]",48.66,,
"COc1cccc(C)n1 [Example 1, 2-methoxy-6-methylpyridine]",14.16,52.92,
"COC(=O)c1cccc(C)c1 [Example 2, methyl 3-methylbenzoate]",10.00,58.33,excellent ability to dissolve the cholesterol stone
"CC(=O)C1CC1 [Example 3, 1-cyclopropylethanone]",28.57,60.00,

# From US11400056B2, “Pharmaceutical composition comprising gallstone solubilizer for treatment of gallbladder disease” (SurgiNex Co., Ltd., priority 2016, dated 2022)
